Test results published in US8283353B2, “Fused ring compound and use thereof” (Takeda Pharmaceutical Company Limited, priority 2009, dated 2012).

Key:
human PPARγ = biological target: T1, human PPARγ (Homo sapiens, UniProt P37231); experiment: PPARγ agonistic activity: luciferase reporter assay in PPARγ:RXRα:4ERPP/CHO-K1 cells; type: cell-based; settings: CHO-K1, test compound 10^−6 M; luciferase activity of control compound X (1 μM) = 100%, non-administration group = 0%
T1 construct: expressed in transfected cells
T1 sequence (P37231 1-477 isoform P37231-2): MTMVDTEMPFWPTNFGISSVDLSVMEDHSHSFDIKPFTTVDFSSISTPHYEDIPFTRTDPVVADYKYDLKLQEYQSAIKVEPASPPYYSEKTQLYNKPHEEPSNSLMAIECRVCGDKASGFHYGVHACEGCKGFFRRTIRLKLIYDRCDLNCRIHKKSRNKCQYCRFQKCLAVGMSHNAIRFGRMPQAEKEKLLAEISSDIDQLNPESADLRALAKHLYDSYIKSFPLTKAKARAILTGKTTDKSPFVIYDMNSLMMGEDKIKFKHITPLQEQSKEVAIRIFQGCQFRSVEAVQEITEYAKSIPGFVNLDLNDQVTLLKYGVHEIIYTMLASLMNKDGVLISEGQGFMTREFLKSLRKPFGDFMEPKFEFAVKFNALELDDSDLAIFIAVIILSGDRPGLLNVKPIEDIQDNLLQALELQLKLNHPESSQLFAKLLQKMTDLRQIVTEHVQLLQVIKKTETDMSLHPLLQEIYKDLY
T1 sequence (P19793 1-462 partner): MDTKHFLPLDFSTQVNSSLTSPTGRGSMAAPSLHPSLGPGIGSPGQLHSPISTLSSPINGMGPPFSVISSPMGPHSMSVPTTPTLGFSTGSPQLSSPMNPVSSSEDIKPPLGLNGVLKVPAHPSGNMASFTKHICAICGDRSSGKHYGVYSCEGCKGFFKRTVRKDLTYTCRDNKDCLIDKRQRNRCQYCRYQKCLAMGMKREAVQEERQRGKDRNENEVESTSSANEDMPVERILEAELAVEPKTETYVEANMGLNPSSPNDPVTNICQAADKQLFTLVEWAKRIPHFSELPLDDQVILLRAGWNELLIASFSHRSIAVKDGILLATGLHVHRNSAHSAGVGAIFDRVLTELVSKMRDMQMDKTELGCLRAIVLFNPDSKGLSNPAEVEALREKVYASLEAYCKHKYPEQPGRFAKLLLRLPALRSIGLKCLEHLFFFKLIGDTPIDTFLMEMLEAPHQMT
Method in brief: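 Activity is expressed relative to untreated cells (0%) and 1 μM reference compound X (100%), from luciferase luminescence. Reporter line: PPARγ:RXRα:4ERPP/CHO-K1, exposed to compound for one day at 37 °C in F12 medium containing 0.1% fatty-acid-free BSA.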

human AT1 receptor = biological target: T2, human AT1 receptor (Homo sapiens, UniProt P30556); experiment: AT1 receptor antagonistic activity: [125I]-angiotensin II binding assay on human AT1 receptor-expressing CHO-K1 cellular membrane fraction; settings: 22.5 pM [125I]-angiotensin II, 1 hr room temperature
T2 construct: expressed in transfected cells; membrane fraction
T2 sequence (P30556 1-359): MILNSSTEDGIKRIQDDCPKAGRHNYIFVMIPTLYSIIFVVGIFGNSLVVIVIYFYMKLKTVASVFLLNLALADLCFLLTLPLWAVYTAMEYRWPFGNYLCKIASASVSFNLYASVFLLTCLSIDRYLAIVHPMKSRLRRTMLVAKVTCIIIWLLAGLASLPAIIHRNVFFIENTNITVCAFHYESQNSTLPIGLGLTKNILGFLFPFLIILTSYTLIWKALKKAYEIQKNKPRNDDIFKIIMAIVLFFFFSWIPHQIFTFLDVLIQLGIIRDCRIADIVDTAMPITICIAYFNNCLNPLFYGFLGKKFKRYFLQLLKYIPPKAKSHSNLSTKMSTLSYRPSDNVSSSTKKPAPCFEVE
Method in brief: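 Competition binding used radiolabelled angiotensin II on stably transfected CHO-K1 membrane fractions in Tris pH 7.4/MgCl2 buffer, optionally containing 0.3 mg/mL fatty acid-free BSA, 1 hr at room temperature. Filtration onto GF/C separated bound tracer, and nonspecific binding was measured with candesartan.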

Compound | activation at 1 µM (human PPARγ) [%] | IC50 (human AT1 receptor) [nM]
CCCc1c(Cc2ccc(-c3ccccc3-c3noc(=O)[nH]3)cc2)c(=O)n([C@H]2CC[C@H](OCC(O)CC)CC2)c2ncnn12 (stereo partly drawn) [Example 326, 4-[trans-4-(2-hydroxybutoxy)cyclohexyl]-6-{[2′-(5-oxo-4,5-dihydro-1,2,4-oxadiazol-3-yl)biphenyl-4-yl]methyl}-7-propyl[1,2,4]triazolo[1,5-a]pyrimidin-5(4H)-one] | 29 | 1.8
C=CC(O)CO[C@H]1CC[C@H](n2c(=O)c(Cc3ccc(-c4ccccc4-c4noc(=O)[nH]4)cc3)c(CCC)n3ncnc32)CC1 (stereo partly drawn) [Example 331, 4-{trans-4-[(2-hydroxybut-3-en-1-yl)oxy]cyclohexyl}-6-{[2′-(5-oxo-4,5-dihydro-1,2,4-oxadiazol-3-yl)biphenyl-4-yl]methyl}-7-propyl[1,2,4]triazolo[1,5-a]pyrimidin-5(4H)-one] | 33 | 2
CCCc1c(Cc2ccc(-c3ccccc3-c3noc(=O)[nH]3)cc2)c(=O)n([C@H]2CC[C@H](OCC(C)(O)C(F)(F)F)CC2)c2ncnn12 (stereo partly drawn) [Example 335, 6-{[2′-(5-oxo-4,5-dihydro-1,2,4-oxadiazol-3-yl)biphenyl-4-yl]methyl}-7-propyl-4-[trans-4-(3,3,3-trifluoro-2-hydroxy-2-methylpropoxy)cyclohexyl][1,2,4]triazolo[1,5-a]pyrimidin-5(4H)-one] | 19 | 1.9
CCCc1c(Cc2ccc(-c3ccccc3-c3noc(=O)[nH]3)cc2)c(=O)n([C@H]2CC[C@H](OCC(C)(O)CF)CC2)c2ncnn12 (stereo partly drawn) [Example 337, 4-[trans-4-(3-fluoro-2-hydroxy-2-methylpropoxy)cyclohexyl]-6-{[2′-(5-oxo-4,5-dihydro-1,2,4-oxadiazol-3-yl)biphenyl-4-yl]methyl}-7-propyl[1,2,4]triazolo[1,5-a]pyrimidin-5(4H)-one] | 24 | 1.9
CCCc1c(Cc2ccc(-c3ccccc3-c3noc(=O)[nH]3)cc2)c(=O)n([C@H]2CC[C@H](OCC3(O)CCC3)CC2)c2ncnn12 [Example 338, 4-{trans-4-[(1-hydroxycyclobutyl)methoxy]cyclohexyl}-6-{[2′-(5-oxo-4,5-dihydro-1,2,4-oxadiazol-3-yl)biphenyl-4-yl]methyl}-7-propyl[1,2,4]triazolo[1,5-a]pyrimidin-5(4H)-one] | 36 | 1.6
CCCc1c(Cc2ccc(-c3ccccc3-c3noc(=O)[nH]3)cc2)c(=O)n([C@H]2CC[C@H](OCC(O)(CF)CF)CC2)c2ncnn12 [Example 339, 4-{trans-4-[3-fluoro-2-(fluoromethyl)-2-hydroxypropoxy]cyclohexyl}-6-{[2′-(5-oxo-4,5-dihydro-1,2,4-oxadiazol-3-yl)biphenyl-4-yl]methyl}-7-propyl[1,2,4]triazolo[1,5-a]pyrimidin-5(4H)-one] | 27 | 1.4
CCCc1c(Cc2ccc(-c3ccccc3-c3noc(=O)[nH]3)cc2)c(=O)n([C@H]2CC[C@H](OCC(C)(O)CC)CC2)c2ncnn12 (stereo partly drawn) [Example 345, 4-[trans-4-(2-hydroxy-2-methylbutoxy)cyclohexyl]-6-{[2′-(5-oxo-4,5-dihydro-1,2,4-oxadiazol-3-yl)biphenyl-4-yl]methyl}-7-propyl[1,2,4]triazolo[1,5-a]pyrimidin-5(4H)-one] | 18 | 2.1
CCCc1c(Cc2ccc(-c3ccccc3-c3noc(=O)[nH]3)cc2)c(=O)n([C@H]2CC[C@H](OC(CC)C(C)(C)O)CC2)c2ncnn12 (stereo partly drawn) [Example 348, 4-[trans-4-(1-ethyl-2-hydroxy-2-methylpropoxy)cyclohexyl]-6-{[2′-(5-oxo-4,5-dihydro-1,2,4-oxadiazol-3-yl)biphenyl-4-yl]methyl}-7-propyl[1,2,4]triazolo[1,5-a]pyrimidin-5(4H)-one] | 19 | 1.9
CCCc1c(Cc2ccc(-c3ccccc3-c3noc(=O)[nH]3)cc2)c(=O)n([C@H]2CC[C@H](OCC(O)C(F)F)CC2)c2ncnn12 (stereo partly drawn) [Example 352, 4-[trans-4-(3,3-difluoro-2-hydroxypropoxy)cyclohexyl]-6-{[2′-(5-oxo-4,5-dihydro-1,2,4-oxadiazol-3-yl)biphenyl-4-yl]methyl}-7-propyl[1,2,4]triazolo[1,5-a]pyrimidin-5(4H)-one] | 20 | 1.4
CCCc1c(Cc2ccc(-c3ccccc3-c3noc(=O)[nH]3)cc2)c(=O)n([C@H]2CC[C@H](OCC(C)(O)CF)CC2)c2nc(C)nn12 (stereo partly drawn) [Example 354, 4-[trans-4-(3-fluoro-2-hydroxy-2-methylpropoxy)cyclohexyl]-2-methyl-6-{[2′-(5-oxo-4,5-dihydro-1,2,4-oxadiazol-3-yl)biphenyl-4-yl]methyl}-7-propyl[1,2,4]triazolo[1,5-a]pyrimidin-5(4H)-one] | 18 | 1.2
CCCc1c(Cc2ccc(-c3ccccc3-c3noc(=O)[nH]3)cc2F)c(=O)n([C@H]2CC[C@H](OC(CC)C(C)(C)O)CC2)c2ncnn12 (stereo partly drawn) [Example 355, 4-[trans-4-(1-ethyl-2-hydroxy-2-methylpropoxy)cyclohexyl]-6-{[3-fluoro-2′-(5-oxo-4,5-dihydro-1,2,4-oxadiazol-3-yl)biphenyl-4-yl]methyl}-7-propyl[1,2,4]triazolo[1,5-a]pyrimidin-5(4H)-one] | 25 | 1.7
CCCc1c(Cc2ccc(-c3ccccc3-c3noc(=O)[nH]3)cc2F)c(=O)n([C@H]2CC[C@H](OCC(C)(C)O)CC2)c2nc(C)nn12 [Example 360, 6-{[3-fluoro-2′-(5-oxo-4,5-dihydro-1,2,4-oxadiazol-3-yl)biphenyl-4-yl]methyl}-4-[trans-4-(2-hydroxy-2-methylpropoxy)cyclohexyl]-2-methyl-7-propyl[1,2,4]triazolo[1,5-a]pyrimidin-5(4H)-one] | 19 | 1.7
CCCc1c(Cc2ccc(-c3ccccc3-c3noc(=O)[nH]3)cc2F)c(=O)n([C@H]2CC[C@H](OC3(C(C)(C)O)CC3)CC2)c2ncnn12 [Example 362, 6-{[3-fluoro-2′-(5-oxo-4,5-dihydro-1,2,4-oxadiazol-3-yl)biphenyl-4-yl]methyl}-4-(trans-4-{[1-(1-hydroxy-1-methylethyl)cyclopropyl]oxy}cyclohexyl)-7-propyl[1,2,4]triazolo[1,5-a]pyrimidin-5(4H)-one] | 26 | 2.5
CCCc1c(Cc2ccc(-c3ccccc3-c3noc(=O)[nH]3)cc2)c(=O)n([C@H]2CC[C@H](OC3(C(C)(C)O)CC3)CC2)c2ncnn12 [Example 363, 4-(trans-4-{[1-(1-hydroxy-1-methylethyl)cyclopropyl]oxy}cyclohexyl)-6-{[2′-(5-oxo-4,5-dihydro-1,2,4-oxadiazol-3-yl)biphenyl-4-yl]methyl}-7-propyl[1,2,4]triazolo[1,5-a]pyrimidin-5(4H)-one] | 22 | 2.3
CCCc1c(Cc2ccc(-c3ccccc3-c3noc(=O)[nH]3)cc2F)c(=O)n([C@H]2CC[C@H](OC(C)C(O)(CF)CF)CC2)c2ncnn12 (stereo partly drawn) [Example 364, 4-{trans-4-[3-fluoro-2-(fluoromethyl)-2-hydroxy-1-methylpropoxy]cyclohexyl}-6-{[3-fluoro-2′-(5-oxo-4,5-dihydro-1,2,4-oxadiazol-3-yl)biphenyl-4-yl]methyl}-7-propyl[1,2,4]triazolo[1,5-a]pyrimidin-5(4H)-one] | 29 | 2.8
